The record followed here is ChEMBL document CHEMBL1139643, “Cell differentiation inducers derived from thalidomide” (2005).

What all share (type): functional
Assay [1] concerns HL-60. Put plainly: Percent cell proliferation of human leukemia cell line HL-60 at 5*E-6 M.
Assay [2] relates to HL-60. Put plainly: NBT positivity against human leukemia cell line HL-60 at 1*E-6 M.
Assay [3] concerns HL-60. Put plainly: NBT positivity against human leukemia cell line HL-60 at 3*E-6 M.
Assay [4] has as its system HL-60. Put plainly: NBT positivity against human leukemia cell line HL-60 at 5*E-6 M.
Assay [5] has as its system HL-60. In words: Percent cell proliferation of human leukemia cell line HL-60 at 3*E-6 M.
Assay [6] concerns HL-60. Put plainly: Percent cell proliferation of human leukemia cell line HL-60 at 1*E-6 M.
Assay [7] relates to HL-60. Put plainly: NBT positivity against human leukemia cell line HL-60 at 1*E-5 M.
Assay [8] relates to HL-60. Put plainly: Percent cell proliferation of human leukemia cell line HL-60 at 1*E-5 M.
Assay [9] relates to HL-60. Put plainly: NBT positivity against human leukemia cell line HL-60 at 1*E-8 M.
Assay [10] relates to HL-60. Put plainly: Percent cell proliferation of human leukemia cell line HL-60 at 1*E-8 M.
Assay [11] deals with HL-60. Put plainly: NBT positivity against human leukemia cell line HL-60 at 2*E-9 M.
Assay [12] deals with HL-60. Put plainly: Percent cell proliferation of human leukemia cell line HL-60 at 2*E-9 M.

As to `CC(C)c1cccc(C(C)C)c1N1C(=O)c2ccc(O)cc2C1=O`, the Cell proliferation is listed as 10% in the assay with HL-60 [1], 43% with HL-60 [5] and 94% with HL-60 [6]. Moreover, the results for the NBT positivity in the assay with HL-60 [2], in the assay on HL-60 [3] and with HL-60 [4] were 3%, 8% and 55%, respectively.

In the assay with HL-60 [7], `O=C1CCC(N2C(=O)c3ccccc3C2=O)C(=O)N1` (stereo not drawn) [THALIDOMIDE] showed an NBT positivity of 1%. Besides, the Cell proliferation in the assay with HL-60 [8] was 101%.

Consider `C=C1/C(=C\C=C2/CCC[C@]3(C)[C@@H]([C@H](C)CCCC(C)(C)O)CC[C@@H]23)C[C@@H](O)C[C@@H]1O` [CALCITRIOL], for which the NBT positivity with HL-60 [9] turned out to be 39%. The same compound gave a Cell proliferation in the assay with HL-60 [10] of 55%.

`O=C1CCC(N2C(=O)c3ccccc3C2=O)C(=O)N1O` (stereo not drawn): in the assay on HL-60 [7], the NBT positivity was determined as 1%. For the same compound, in the assay on HL-60 [8], the Cell proliferation is reported as 100%.

In the assay with HL-60 [7], `CC(C)c1cccc(C(C)C)c1N1C(=O)c2ccc(N)cc2C1=O` showed an NBT positivity of 5%. The Cell proliferation with HL-60 [8] is reported as 53%.

Compound `CC(C)c1cccc(C(C)C)c1N1C(=O)c2ccccc2C1=O` came in with an NBT positivity in the assay on HL-60 [7] of 9%. The compound further registered a Cell proliferation in the assay on HL-60 [8] of 24%.

The compound `CC1(N2C(=O)c3ccc(N)cc3C2=O)CCC(=O)NC1=O` (stereo not drawn) had an NBT positivity in the assay with HL-60 [7] of 1%. In the assay on HL-60 [8], this compound had a Cell proliferation of 103%.

In the assay with HL-60 [7], `CC(C)c1cccc(C(C)C)c1N1C(=O)c2cccc(O)c2C1=O` came in with an NBT positivity of 3%. In the assay with HL-60 [8], the Cell proliferation stood at 76%.

`CC1=C(/C=C/C(C)=C/C=C/C(C)=C/C(=O)O)C(C)(C)CCC1` [TRETINOIN] registered an NBT positivity with HL-60 [11] of 52%. Also, the Cell proliferation in the assay with HL-60 [12] was 45%.

Turning to `CC(C)c1cccc(C(C)C)c1N1C(=O)c2cccc(N)c2C1=O`, the NBT positivity is 16% in the assay on HL-60 [7] and 2% in the assay on HL-60 [3]. In addition, the Cell proliferation turned out to be 25% with HL-60 [8] and 73% in the assay on HL-60 [5].

Take `CC1(N2C(=O)c3cccc(N)c3C2=O)CCC(=O)NC1=O` (stereo not drawn): in the assay on HL-60 [7], the NBT positivity is on record as 2%. For the same compound, the Cell proliferation in the assay on HL-60 [8] was determined as 92%.
